Laboratory results from PubChem BioAssay (NCI).
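Five compound concentrations were applied to cells in 96-well plates for 48 hours; endpoints were derived by simple linear interpolation of the resulting dose-response curve. At the GI50, growth is halved. TGI is the concentration that stops growth completely.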

How the values were obtained:
Assay in all cases: inhibition of tumour cell growth, NCI panel, 48 h
COLO 205 colon = system: COLO 205 colon
EKVX NSCLC = system: EKVX NSCLC
HCC-2998 colon = system: HCC-2998 colon
HCT-15 colon = system: HCT-15 colon
HT29 colon = system: HT29 colon
MALME-3M melanoma = system: MALME-3M melanoma
NCI-H23 lung = system: NCI-H23 lung
NCI-H522 lung = system: NCI-H522 lung
OVCAR-4 ovarian = system: OVCAR-4 ovarian
SF-539 CNS = system: SF-539 CNS
SK-MEL-28 melanoma = system: SK-MEL-28 melanoma
SN12C renal = system: SN12C renal
SR leukemia = system: SR leukemia
SW-620 colon = system: SW-620 colon
UACC-62 melanoma = system: UACC-62 melanoma
LOX IMVI melanoma = system: LOX IMVI melanoma
MDA-N = system: MDA-N
SK-MEL-2 melanoma = system: SK-MEL-2 melanoma
OVCAR-5 ovarian = system: OVCAR-5 ovarian

SMILES	TGI (COLO 205 colon) [µM]	TGI (EKVX NSCLC) [µM]	TGI (HCC-2998 colon) [µM]	TGI (HCT-15 colon) [µM]	TGI (HT29 colon) [µM]	TGI (MALME-3M melanoma) [µM]	TGI (NCI-H23 lung) [µM]	TGI (NCI-H522 lung) [µM]	TGI (OVCAR-4 ovarian) [µM]	TGI (SF-539 CNS) [µM]	TGI (SK-MEL-28 melanoma) [µM]	TGI (SN12C renal) [µM]	TGI (SR leukemia) [µM]	TGI (SW-620 colon) [µM]	TGI (UACC-62 melanoma) [µM]	TGI (LOX IMVI melanoma) [µM]	TGI (MDA-N) [µM]	TGI (SK-MEL-2 melanoma) [µM]	TGI (OVCAR-5 ovarian) [µM]	GI50 (HCC-2998 colon) [µM]
CSc1ccc(NC(=O)C2c3[nH]c4ccccc4c3C3CCC(C(C)(C)C)CC3C2C(=O)O)cc1 (stereo not drawn)	32	85.3	> 100	> 100	39.1	46.8	58.7	37.4	50.1	37.7	60.5	36.8	25.5	32.1	67.1					
O=c1oc2ccccc2c(O)c1C(c1ccc(-c2ccccc2)cc1)c1c(O)c2ccccc2oc1=O	> 100	> 100	29	40	38.3	65	56.8	66.7	> 100		32	33.7		33.2	39.5	44.4	36.1	56.8		
CO[C@@]12C[C@@H](C)[C@]34O[C@H]3C[C@]3(C)O[C@]43CC1=C(C)C(=O)O2	> 100	> 100	> 100	> 100	> 100	> 100	> 100	> 100	> 100	> 100	> 100	> 100		> 100	> 100	> 100	> 100	> 100	> 100	
CC(=O)c1ccccc1NC(=O)C(=O)C(C(=O)c1ccccc1-c1ccccc1)C1OC(=O)c2ccccc21 (stereo not drawn)	46.1	65	30.9	34.9	56.1	34.3	31	31	> 100	37.2		43.5	88.9	86.5	38.8	37.7		40.5	64.9	
CN(C)C(=S)C(Cl)(c1ccccc1)c1ccccc1	> 100	75	> 100	> 100	77.3	> 100	> 100	> 100	> 100	> 100	> 100	> 100		> 100	> 100	> 100	> 100	66.8	> 100	
C[C@]12CC[C@H](O)CC1=CC[C@@H]1C2CC[C@]2(C)C(=O)NC(=O)CC12 (stereo partly drawn)	> 100	> 100	> 100	> 100	> 100	> 100	> 100	> 100	> 100	> 100	> 100	> 100	> 100	> 100	> 100	> 100		> 100	> 100	
CN1C(=O)C(C(=O)Nc2ccccn2)C2C[C@@]1(C)Oc1ccccc12 (stereo partly drawn)	> 100	> 100	> 100	> 100	> 100	> 100	> 100	> 100	> 100		> 100			> 100	> 100	> 100	> 100	> 100	> 100	
CC(C)OC/N=C(/N)NC#N	> 100	> 100	> 100	33.7	> 100	> 100	> 100	> 100	> 100	> 100	> 100	> 100	49.6	45.2	> 100	43.7		> 100	> 100	
CC(=O)NNc1nc(C)c(C(=O)NNC(=O)C(=O)Nc2c([N+](=O)[O-])ccc(C)c2C)s1	> 100	> 100	> 100	> 100	> 100	> 100	> 100	> 100	> 100	> 100	> 100	> 100	> 100	> 100	> 100	> 100		> 100	> 100	
COCN(C)c1nc(N(C)C)nc(N(C)C)n1	> 100	> 100	> 100	> 100	> 100	> 100	> 100	37	> 100	> 100	> 100	> 100	> 100	> 100	> 100	> 100		> 100	> 100	
CC1=NN2C(c3ccc([N+](=O)[O-])cc3)=CSC2=NC(C)(C)C1	> 100	> 100	> 100	> 100	> 100	> 100	> 100	> 100	> 100	> 100	> 100	> 100	> 100	> 100	> 100	> 100		> 100	> 100	
ClCC[N-]CC[N-]CCCl.ClCC[N-]CC[N-]CCCl.[O-][Cl+3]([O-])([O-])O.[Zn+2]	> 72.2	> 100	> 100	> 100	> 100	37.4	> 60.3	27.3	41.8	> 67.8	> 62.4	> 100	> 100	47.2	66.9	57.2		41.4	46.6	
CC(C)(C)[C@H]1CO[C@]2(c3ccccc3)[C@@H]3C[C@@H]3C(=O)N12	> 100	> 100	> 100	> 100	> 100	> 100	> 100	> 100	> 100	> 100	> 100	> 100	> 100	> 100	> 100	> 100		> 100	> 100	
C/C(=N\Nc1nc2ccccc2[nH]1)c1cnccn1	> 40.2	> 34.4	59.8	> 100	> 48	> 25.6	> 30.7		> 100			12.4		> 66	> 22.3	> 30.5	> 100	26	> 100	
O=C(CSCC(=O)N/N=C\c1ccc(O)c(O)c1O)N/N=C\c1ccc(O)c(O)c1O	> 100	50.4	46.1	29.1	54.9	52.3	3.65	44.4	9.22	37.9	44.2	59	8.18	12.8	41.8	4.76		84.5		
CC1(C)Cc2c(oc3ncnc(N)c23)CS1	> 100	> 100	> 100	> 100	> 100	> 100	> 100	> 100	> 100	> 100		> 100	> 100	> 100	> 100	> 100		> 100	> 100	
C(=C\C(Sc1ccccc1)c1ccccc1)/NNC1=NC(c2ccccc2)C(c2ccccc2)=NN1 (stereo not drawn)	> 100	> 100	> 100	> 100	35.4	> 100	> 100	> 100	> 100	> 100	> 100	> 100	77.7	> 100	> 100	> 100		> 100	> 100	
Nc1cccc(OCC2CCCN3CCCCC23)c1 (stereo not drawn)	36.8	31.7	30	31.5	25.1	40.4	34.3		47.2	36.5	35.7	33.6		39.4	31.8	31.4	30.8	44.9	35.2	
Nc1nc(Cl)c2ncn(Cc3cccc(CCl)c3)c2n1	30.1	21.2	4.86	5.58	19.2	18.1	4.23	7.03	5.07	20	23.9	22.4	> 28.3	11.9	10.9	13.4		58.5	22.8	
C=CCCCN1CCCC(C)C1=S (stereo not drawn)	> 100	> 100	> 100	> 100	> 100	> 100	> 100	> 100	> 100	> 100	> 100		> 100	> 100	> 100	> 100		> 100	> 100	
O=C1OCC(c2ccc(Cl)cc2)=C1Cl	70.4	> 100	47.8	> 100	> 100	32.7	54.6	35.9	> 100	> 100	> 100	80.4	39.2	61.2	45.9	60.3		64.1	44.4	
COc1cc2c(oc(=O)c3cc4cc([Si](C)(C)C)oc4c(OC)c32)c2cccc(O)c12	> 100	> 100	> 100	> 100	> 100	> 100	> 100	> 100	> 100	> 100	> 100	> 100	> 100	> 100	> 100	> 100		> 100	> 100	
COc1ccc(CNc2nc(NCc3ccc(OC)cc3)nc(NC3CCCC3)n2)cc1	> 25.1	> 100	38.6	> 20.6	13.6	> 100	> 22.2	> 19.9	> 100	11.4	> 100	> 100	> 100	> 100	> 59.6	76.9		> 100	> 44.7	3.67
CCOC(=O)CSC1NC(C(=O)OC)CC1OC (stereo not drawn)	> 100	> 100	> 100	> 100	> 100	> 100	> 100	> 100	> 100		> 100			> 100	> 100		> 100	> 100	> 100	
N#Cc1ccc(Oc2ccccc2)cc1C#N	68.6	> 100	> 100	43.3	> 100	> 100	> 100	57.2	> 100	> 100	> 100	> 100	49.7		> 100	38.7		> 100	> 100	
CC(=O)C1C(=O)C(=O)N(c2ccc([N+](=O)[O-])cc2)C1=O (stereo not drawn)	> 100	> 100	> 100	> 100	> 100		> 100	> 100	> 100	> 100	> 100	> 100		> 100	> 100	> 100	> 100	> 100	> 100	
COc1ccc(-c2csc(Cc3nc4c(Br)cc(Br)cc4c(=O)n3-c3ccc(OC)cc3)n2)cc1	> 100	> 100	> 100	> 100	> 100		> 100		> 100		> 100			> 100	> 100	> 100	> 100	> 100	> 100	
